Patent publication US12523663B2, “Use of CD9 as a biomarker and as a biotarget in glomerulonephritis or glomerulosclerosis” (INSERM (INSTITUT NATIONAL DE LA SANTÉ ET DE LA RECHERCHE …, priority 2019, dated 2026)

Columns and labels:
Format in all cases: cell-based
PDGFRβ = experiment: Western blot of PDGFRβ phosphorylation in PEC; settings: PEC stimulated with PDGF-BB
Description: PEC lysates were prepared with RIPA extraction buffer containing phosphatase inhibitors and protease inhibitors (Roche). Equal amounts of proteins were loaded onto sodium dodecyl sulfate-polyacrylamide electrophoresis gels for separation and transferred onto poly(vinylidene difluoride) membranes. The membranes were blocked with milk and probed with different antibodies: rat anti-CD9 (BD Pharminogen, 553758, 1:1000), rabbit anti-phospho-PDGF receptor-β Y1009 (Cell Signaling Technology, 4549; 1:1000), rabbit anti-PDGFRB (Cell Signaling, 3169; 1:1000), rabbit anti-integrin […] (Millipore, 04-1109, 1:1000), rabbit anti-CASP3 (Cell Signaling Technology, 9662; 1:1000), rabbit anti-phospho EGFR Y1068 (Cell Signaling Technology, 2234; 1:1000), rabbit anti EGFR (Cell Signaling Technology, 2232; 1:1000), rabbit anti-phospho-FAK Y397 (Cell Signaling 3283, 1:1000), rabbit anti-FAK (Millipore, 06-543,1:1000). Membranes were then probed with horseradish peroxidase-conjugated secondary antibodies (Cell Signaling Technology, 7074 and 7076; 1:2000; Jackson Immunoresearch, 706-036-148; 1:1000) and bands were visualized by enhanced chemiluminescence (Clarity Western ECL substrate; Bio-Rad, 170-5061). A LAS-4000 imaging system (Fuji, LAS4000, Burlington, N.J., USA) was used to reveal bands and densitometric analysis was used for quantification.

PEC [1] = experiment: Proliferation assay (Ki67 staining, flow cytometry); settings: PDGF-BB stimulation
Description: To assess cell proliferation, we used the nuclear antigen Ki67 staining. After overnight starvation in ECBM+1% FBS, cells were treated 24 hours with PDGF-BB (10 ng/mL) or HBEGF (20 ng/mL) or corresponding controls. Cells were then trypsinized and washed in cold PBS. Supernatants were kept and included in analysis. After centrifugation, cells were permeabilized with 1 mL of ice-cold ethanol for 2 h at −20° C. Following two washes with FACS buffer (HBSS, 2% FBS and 10 mM HEPES), cells were stained for 30 min at room temperature in the dark with phycoerythrin (PE)-conjugated anti-human Ki67 mAb (clone B56) (BD Pharmingen) and washed. Samples were analyzed on a BD LSRII flow cytometer (BD Bioscience). An isotype control staining with PE mouse IgG1 was performed. Data were analyzed using FlowJo software (FlowJo, LLC).

PEC [2] = experiment: Cell migration in IBIDI chambers (scratch assay); settings: scratch assays, growth factor stimulation
Description: Unoriented migration assay was performed using IBIDI chambers (Culture-Insert 2 Well in μ-Dish 35 mm, high ibiTreat, n° 81176). After confluence was obtained, PECs were grown in ECBM without supplements with FBS 1% overnight. The insert was then removed creating a gap of 500 μm between cells. A first round of photographs was taken (HO), shortly after cells were stimulated with either ECBM without supplements with FBS 1% (control), or with HB-EGF 10 ng/mL, or with PDGF-BB 10 ng/mL. Photographs were taken every 30 min for 12 h. Areas of migration were measured by automatic quantification on NIS-Elements AR software.

Molecule	PDGFRβ phosphorylation (PDGFRβ)	PEC proliferation (number of KI67+ cells) (PEC [1])	PEC migration (PEC [2])
PDGF-BB: growth factor used to stimulate PECs	induced a rapid and transient PDGFRβ phosphorylation	induced PEC proliferation	induced PEC migration
HB-EGF: growth factor used to stimulate PECs (protein, UniProt Q99075 63-148, looked up) Heparin-binding EGF-like …: DLQEADLDLLRVTLSSKPQALATPNKEEHGKRKKKGKGLGKKRDPCLRKYKDFCIHGECKYVKELRAPSCICHPGYHGERCHGLSL			induced PEC migration
